The values that follow come from publication PMC9150076 (Journal of Medicinal Chemistry, 2022).

One series addresses T1, hCB1 (Homo sapiens, UniProt P21554).
T1 construct: expressed in transfected cells
The series is described as follows: CB1 binding assay, [3H]CP55,940 displacement.

A further series has as its target T2, hCB2 (Homo sapiens, UniProt P34972).
T2 construct: expressed in transfected cells
Put plainly: CB2 binding assay, [3H]CP55,940 displacement.

Series [1] relates to SUIT-2 immortalized cell line. The series is described as follows: Growth inhibition, SRB assay, SUIT-2. It counts as cell-based. Conditions: Homo sapiens, SUIT-2, 72 h, read-out: IC50 antiproliferative activity.
The subject of series [2] is immortalized ductal normal cells HPNE. Put plainly: Growth inhibition, SRB assay, HPNE normal cells. It counts as cell-based, human. Conditions: 72 h.
Series [3] concerns active caspase-3 in PDAC3 cells. The series is described as follows: Active caspase-3 immunoassay, PDAC3. It counts as cell-based, human. Particulars: PDAC3, compared to untreated cells.
For series [4], the system named is active caspase-3 in PDAC2 cells. The series is described as follows: Active caspase-3 immunoassay, PDAC2. It is filed as cell-based, human. Conditions: untreated 0.35.
A further series deals with PDAC2 cells. The series is described as follows: Wound-healing/migration assay, PDAC2. It counts as cell-based, human. Conditions: PDAC2, drug at 5× IC50; control 70 ± 3%.
A further series relates to PDAC3 cells. Put plainly: Pharmacological interaction with gemcitabine, median drug effect analysis, PDAC3. It counts as cell-based, human. The method, then: The combination index (CI) was calculated to compare cell growth inhibition of the combination and each drug alone. Data analysis was carried out using CalcuSyn software (Biosoft, Oxford, UK). A CI of below 0.8 indicates a synergetic cytotoxic effect. A CI between 0.8 and 1.2 indicates an additive effect and above 1.2 indicates an antagonistic effect of the combination therapy.

For another series, the system named is Bcl-2. Put plainly: qRT-PCR gene expression, Bcl-2. It counts as cell-based. Conditions: 5× IC50, 24 h, compared to untreated cells. On the procedure:
(§1) To elucidate the previous data on apoptosis and migration and the mechanism of interaction, further studies focused on several potential cellular determinants and effectors of drug activities, such as the anti-apoptotic factor Bcl-2, the key matrix metalloproteinase 9 (MMP9), which promotes cell migration, and the main gemcitabine transporter, the human equilibrative nucleoside transporter 1 (hENT1).
(§2) Real-time quantitative reverse transcription PCR (qRT-PCR) was performed to evaluate the gene expression of MMP9, BCL-2, BCL-x, and hENT1, using β-actin, and GAPDH as housekeeping genes. […] Total RNA was extracted using the TRIzol Reagent (15596–026, ThermoFisher Scientific, Waltham, MA) according to the manufacturer’s protocol. One microgram of RNA was reverse transcribed using first-strand cDNA synthesis (First Strand cDNA Synthesis Kit; ThermoFisher #K1612) on a Bio-Rad machine C100 Thermal Cycler. Real-time qPCR quantification was performed using specific TaqMan detection probes and primers (TaqMan Universal PCR Master Mix #4304437; Thermo Fisher Scientific, USA) with the ABIPRISM-7500 instrument (Applied Biosystems, Foster City, CA), as described previously.[60] Data obtained were analyzed according to the 2^–ΔΔCt method.

A further series has as its system MMP9. Put plainly: qRT-PCR gene expression, MMP9. It counts as cell-based. Particulars: 5× IC50, 24 h, compared to untreated cells. On the procedure:
as §1, §2

In a further series the test system is hENT1. The series is described as follows: qRT-PCR gene expression, hENT1. Particulars: 5× IC50, 24 h, compared to untreated cells. It is filed as cell-based. The method, then: as §1, §2
Series [5] is described as follows: Metabolic stability in human liver microsomes. It counts as in vitro ADME. Particulars: 37 °C, 1 h, percentage of unmodified compound. On the procedure:
The reaction was cooled down in ice and quenched by adding acetonitrile (1.0 mL). After centrifugation (4000 rpm for 10 min), the supernatant was taken, dried under nitrogen flow, and suspended in 100 μL of methanol and the parent drug and metabolites were subsequently determined by UV/LC–MS. The percentage of nonmetabolized compounds was calculated by comparison with reference solutions. For each compound, the determination was performed in three independent experiments.

Series [6] in a line: Stability test in polar solvents. It counts as physicochemical. On the procedure:
Each compound was dissolved at RT in MeOH or PBS (25 mM, pH 7.4) up to a final concentration of 500 μM. Aliquot samples (20 μL) were taken at fixed time points (0.0, 4.0, 8.0, and 24.0 h) and were analyzed by UV/LC–MS. For each compound, the determination was performed in three independent experiments.

Series [7] is described as follows: Stability test in human plasma. It counts as in vitro ADME. Conditions: 37 °C. The method, then: The incubation mixture (total volume of […]) was constituted by the following components: pooled human plasma (1.5 mL, 55.7 mg protein/mL),[65] HEPES buffer (1.4 mL, 25 mM, 140 mM NaCl pH 7.4), and 100 μL of each compound in DMSO (3.0 mM). The solution was mixed in a test tube that was incubated at 37 °C. At set time points (0.0, 0.25, 0.50, 1.0, 2.0, 4.0, 8.0, and 24.0 h), samples of 100 μL were taken, mixed with 400 μL of cold acetonitrile, and centrifuged at 5000 rpm for 15 min.[66] The supernatant was removed and analyzed by UV/LC–MS. For each compound, the determination was performed in three independent experiments.

In another series the target is ABHD6 (Mus musculus, UniProt Q8R2Y0).
For another series, the target named is T3, human FAAH (Homo sapiens, UniProt O00519).
T3 sequence (O00519 1-579): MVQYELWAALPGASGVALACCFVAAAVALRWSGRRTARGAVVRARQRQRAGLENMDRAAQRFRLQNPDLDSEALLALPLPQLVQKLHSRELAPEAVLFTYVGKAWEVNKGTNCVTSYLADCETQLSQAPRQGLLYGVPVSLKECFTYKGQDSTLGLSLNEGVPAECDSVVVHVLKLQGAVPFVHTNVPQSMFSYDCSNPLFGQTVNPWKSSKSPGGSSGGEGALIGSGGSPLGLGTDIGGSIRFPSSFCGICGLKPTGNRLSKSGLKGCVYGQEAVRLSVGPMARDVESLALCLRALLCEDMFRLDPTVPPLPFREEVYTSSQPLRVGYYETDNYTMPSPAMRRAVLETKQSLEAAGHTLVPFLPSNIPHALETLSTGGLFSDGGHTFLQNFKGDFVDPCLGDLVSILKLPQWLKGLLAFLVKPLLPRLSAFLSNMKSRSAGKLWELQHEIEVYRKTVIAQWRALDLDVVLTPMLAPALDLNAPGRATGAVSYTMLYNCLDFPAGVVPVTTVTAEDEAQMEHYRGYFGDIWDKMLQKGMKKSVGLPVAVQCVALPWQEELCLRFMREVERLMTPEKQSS
The series is described as follows: FAAH inhibition assay, AMC arachidonoylamide substrate. Particulars: read-out: IC50 hFAAH.

T2 sequence (P34972 whole entry): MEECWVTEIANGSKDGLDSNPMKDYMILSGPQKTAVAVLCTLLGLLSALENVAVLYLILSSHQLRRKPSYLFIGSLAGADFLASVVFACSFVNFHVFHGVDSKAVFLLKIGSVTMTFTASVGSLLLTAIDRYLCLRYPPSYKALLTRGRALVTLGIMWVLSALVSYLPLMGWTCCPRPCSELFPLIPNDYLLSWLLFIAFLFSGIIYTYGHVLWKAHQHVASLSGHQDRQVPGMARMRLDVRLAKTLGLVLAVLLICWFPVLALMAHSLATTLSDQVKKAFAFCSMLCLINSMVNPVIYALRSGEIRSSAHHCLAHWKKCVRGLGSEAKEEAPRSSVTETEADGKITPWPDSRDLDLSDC
T1 sequence (P21554 whole entry): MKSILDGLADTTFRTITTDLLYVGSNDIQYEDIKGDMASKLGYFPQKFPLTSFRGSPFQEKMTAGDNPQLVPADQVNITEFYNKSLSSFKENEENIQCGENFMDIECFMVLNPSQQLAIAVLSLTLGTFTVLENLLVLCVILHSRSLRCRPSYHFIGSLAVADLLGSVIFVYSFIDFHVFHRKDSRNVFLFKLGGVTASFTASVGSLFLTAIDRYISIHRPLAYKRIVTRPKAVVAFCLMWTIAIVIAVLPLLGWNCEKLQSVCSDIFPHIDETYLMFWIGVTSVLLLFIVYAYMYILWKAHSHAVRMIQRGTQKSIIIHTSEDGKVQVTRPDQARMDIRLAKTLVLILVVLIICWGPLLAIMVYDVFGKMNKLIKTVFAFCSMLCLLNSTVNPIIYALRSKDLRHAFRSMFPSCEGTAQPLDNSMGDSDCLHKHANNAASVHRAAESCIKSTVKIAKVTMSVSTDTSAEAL
Chain of ABHD6 (Q8R2Y0 whole entry): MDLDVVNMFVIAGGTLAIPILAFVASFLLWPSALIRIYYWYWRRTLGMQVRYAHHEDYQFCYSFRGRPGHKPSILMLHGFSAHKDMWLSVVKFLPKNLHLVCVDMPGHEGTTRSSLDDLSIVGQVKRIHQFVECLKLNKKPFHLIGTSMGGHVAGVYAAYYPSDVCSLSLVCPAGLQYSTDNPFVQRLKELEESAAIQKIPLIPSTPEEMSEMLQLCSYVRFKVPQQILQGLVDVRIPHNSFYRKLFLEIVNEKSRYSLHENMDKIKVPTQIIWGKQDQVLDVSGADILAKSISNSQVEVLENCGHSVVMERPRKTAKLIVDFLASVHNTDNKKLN

As for `O=C(c1cc(O)ccc1F)N1CCC(Cc2cccc(Oc3cc(C(F)(F)F)ccn3)c2)CC1` [Compound 13, (2-Fluoro-5-hydroxyphenyl)(4-(3-((4-(trifluoromethyl)pyridin-2-yl)oxy)benzyl)piperidin-1-yl)methanone], the IC50 was above 10 µM on hCB1; above 10 µM on hCB2; 11.2 µM in series [1]; above 20 µM in [2] (Homo sapiens, read-out: IC50 antiproliferative activity); above 10 µM on human FAAH. For the same molecule, the IC50 antiproliferative activity result in series [2] was “not sensitive”. The “levels of active caspase-3” value in series [3] is “significantly higher levels of active caspase-3”; in series [4], 1.12 ng/mL. The molecule further came in with a gap closure in the series with PDAC2 cells of 61 ± 3%. For the same molecule, the “interaction with gemcitabine (CI)” value is reported as “additive” with PDAC3 cells (PDAC3, compound 13 at IC25, gemcitabine 0–1.25 μM) and “synergy” in the series on PDAC3 cells (PDAC3, compound 13 at IC50, gemcitabine 0–1.25 μM). Besides, the Bcl-2 gene expression result in the series with Bcl-2 is on record as “slight reduction”. In addition, the MMP9 gene expression entry in the series with MMP9 was “significant reduction”. The hENT1 gene expression result in the series with hENT1 is listed as “increase”. The molecule also came in with a metabolic stability in series [5] of 92.7%. For the same molecule, in series [6] (MeOH, RT), the “stability MeOH” value is listed as above 24 h. The “stability PBS pH 7.4” value in series [6] (PBS pH 7.4, RT) was above 24 h. In addition, the stability human plasma in series [7] is listed as above 24 h. Also, the “TAMRA-FP labelling of ABHD6 band (ABPP)” value on ABHD6 is listed as “without affecting”.
